For test [1], the system named is Grb10. The conditions noted are these: 79 SH2 domains, 100 μg peptide in PBST, duplicate spots; not quantitative. The protocol: (§1) The microarray was conducted by the Protein Array and Analysis Core at the MD Anderson Cancer Center (University of Texas, USA) using standard protocols. […] Each SH2 domain was spotted in duplicate.
The test system of test [2] is Grb14. The conditions noted are these: 79 SH2 domains, 100 μg peptide in PBST, duplicate spots; not quantitative. The protocol:
as §1

The test system of test [3] is Grb2. The conditions noted are these: 79 SH2 domains, 100 μg peptide in PBST, duplicate spots; not quantitative. On the procedure:
as §1

Test [4] relates to SH2D2A. The note with it: 79 SH2 domains, 100 μg peptide in PBST, duplicate spots; not quantitative.
For test [5], the target named is T1, Grb2-SH2 WT (Homo sapiens, UniProt P62993).
T1 construct: Grb7-SH2 (residues 415-532) and Grb2-SH2 (residues 58-160) were incorporated into the pGex2T plasmid; made in house; host or cells: E. coli BL21(DE3)pLysS
Nature of the test: SPR binding of G7-18NATE to immobilized GST-Grb2-SH2 WT. Background: SPR reads the build-up and loss of mass on a sensor chip optically.

The target in test [6] is T2, Grb2-SH2 S90R (Homo sapiens, UniProt P62993, S90R).
T2 construct: Grb7-SH2 (residues 415-532) and Grb2-SH2 (residues 58-160) were incorporated into the pGex2T plasmid; made in house; host or cells: E. coli BL21(DE3)pLysS
Nature of the test: SPR binding of G7-18NATE to immobilized GST-Grb2-SH2 S90R mutant.

Test [7] has as its system other SH2 domains in the microarray with leucine present at this position. The note with it: 79 SH2 domains, 100 μg peptide in PBST; SH2 domains other than Grb7 and SH2D2A with leucine at βD6.
Test [8] relates to Grb7-SH2 domain. Details: method as in 3 sources, one per row (each row's own in cited_ref): ref Ambaye et al., 2011a; Watson et al., 2017 ||| ref Gunzburg et al., 2012 ||| ref Janes et al., 1997; Gunzburg et al., 2012. The conditions noted are these: ref Janes et al., 1997; Gunzburg et al., 2012; cited from earlier work. From the text: Grb7 is a signaling adaptor protein that has been specifically targeted through th ...

In test [9] the test system is Grb2 / HER3. Details: method as in Pero et al., 2002. The conditions noted are these: ref Pero et al., 2002; cited from earlier work.
Test [10] has as its system SH2 domain of Grb10. The conditions noted are these: SPR; ref Gunzburg et al., 2012; cited from earlier work.
The test system of test [11] is SH2 domain of Grb14. The conditions noted are these: SPR; ref Gunzburg et al., 2012; cited from earlier work.
Test [12] deals with T3, Grb7-SH2 R462S, GST fusion (residues 415-532) (UniProt Q14451 415-532, R462S).
T3 construct: Made by site-directed mutagenesis of the wild-type construct; primers in Supplementary Material; also called R462S Grb7-SH2; R462S mutant
The experiment in a line: SPR; Biacore T100, CM5 chip; GST-SH2 fusion captured by amine-coupled anti-GST antibody, GST alone on the reference cell; G7-18NATE injected 60 s at 30 μL/min in 150 mM NaPO4, 150 mM NaCl, 1 mM DTT, pH 7.4; equilibrium responses fitted by a single-site binding model. The note with it: both partners purified.

Test [13] has as its target T4, Grb7-SH2 wild-type, GST fusion (residues 415-532) (UniProt Q14451 415-532).
T4 construct: also called Grb7-SH2 WT; WT Grb7-SH2
Described as above. The note with it: both partners purified.

The target of test [14] is T3, Grb7-SH2 R462S, GST fusion (residues …). The test is described as above. The note with it: both partners purified. The source holds these as a separate data set.
The target of test [15] is T5, Grb2-SH2 wild-type, GST fusion (residues 58-160) (UniProt P62993 58-160).
T5 construct: Grb2, SH2 domain, residues 58-160, in pGex2T; also called Grb2-SH2 WT; WT Grb2-SH2
The description is as above. The note with it: both partners purified.

Setting [16] is: SPR, Biacore T100, single-site binding model, errors are standard error of the fits.
Setting [17] is: in words, injection of G7-18NATE over the chip surface.

Entries after “also recorded” stand apart in the source; their conditions may differ. Bridges are numbered along the chain shown (N, C = ends).

T3 sequence (Q14451 415-532 R462S): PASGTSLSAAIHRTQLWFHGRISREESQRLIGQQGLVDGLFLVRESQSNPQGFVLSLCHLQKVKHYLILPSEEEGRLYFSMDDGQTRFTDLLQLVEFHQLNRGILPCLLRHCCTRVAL
T4 sequence (Q14451 415-532): as the sequence (Q14451 415-532 R462S) above, with S48R counted along it

With “(cyclo-(CH2CO-WFEGYDNTFPC-RRMKWKKK(Biotin))-amide) (sidechain bridge or staple) [G7-18NATE-PB]”, the microarray fluorescence entry in [1], in [2] and in test [3] was “no observation of fluorescence” throughout. In addition, in test [4], the “microarray fluorescence / binding” value was “Fluorescence was observed, although at much lower intensity”.

`C[C@@H](O)[C@@H]1NC(=O)[C@H](CC(N)=O)NC(=O)[C@H](CC(=O)O)NC(=O)[C@H](Cc2ccc(O)cc2)NC(=O)CNC(=O)[C@H](CCC(=O)O)NC(=O)[C@H](Cc2ccccc2)NC(=O)[C@H](Cc2c[nH]c3ccccc23)NC(=O)CSC[C@@H](C(N)=O)NC(=O)[C@@H]2CCCN2C(=O)[C@H](Cc2ccccc2)NC1=O` [G7-18NATE]: the Rmax in test [5] (setting [16]) came to 14.2 ± 0.9 RU; in test [6] (setting [16]), 41.0 ± 3 RU. Moreover, the SPR binding response entry is listed as “only a low binding response” in [5] (setting [17]) and “low responses, though slightly higher than seen for Grb2-SH2 WT; also recorded: minimal binding” in [6] (setting [17]). Besides, the “microarray fluorescence / binding” value in [4] is given as “detectable binding”. Also, in test [7], the microarray binding result is reported as “no ability to be bound”. Further, the “specificity for Grb7-SH2 over Grb2, Grb10 and Grb14 SH2 domains” value in test [8] was “specific for the Grb7-SH2 domain over the closely related SH2 domains of Grb2, Grb10, and Grb14”. Also, in test [9], the “effect on Grb2/HER3 interaction” value is reported as “no effect”. The “binding to Grb10 SH2 domain” value in test [10] is recorded as “minimal binding”. Besides, the “binding to Grb14 SH2 domain” value in test [11] is on record as “minimal binding”.

B1: G7-18NATE (cyclo-(CH2CO-WFEGYDNTFPC)-amide) (peptide)
peptide: {CH2CO}-WFEGYDNTFPC-NH2
modifications: thioether N-11
notes: cyclic peptide developed via phage display against the Grb7-SH2 domain; Purity >95% by LC-MS; source: synthetic peptide (standard Fmoc-chemistry), bought: Purar Chemicals (Australia)
By Kd is commonly meant the concentration at which binding is half-saturated. As for B1, the Kd is 7.97 µM in [12], 2.43 µM in test [13], 7.98 µM in test [14] and > 125 µM in [15].

The values above are taken from paper PMC5623053 (Frontiers in Molecular Biosciences, 2017).
